# Laboratory results taken from US20020110602A1, “Method and apparatus for washing produce” (priority 2000, published 2002).
# Where “and” joins values, the source holds several entries; their conditions need not be identical. Identical values can stand only once. Like-named read-outs stand apart in the source and are kept apart here.
# What was measured:
# [1] = system: P. digitatum (M6R strain); test: High pressure washing of inoculated navel oranges with sodium hypochlorite solution, no bicarbonate; type: in vivo, Penicillium digitatum; conditions: 2 weeks at 55° F.; for % Fruit Decay (Average): navel oranges; for Total Decay: number of decayed navel oranges; for No decay: number of navel oranges without decay
# P. digitatum [2] = test: Effect of pH and bicarbonate concentration on decay of oranges; type: in vivo, Penicillium digitatum
# P. digitatum [3] = test: Immersion washing of oranges with various solutions, decay; type: in vivo, Penicillium digitatum
# Green Mold [4] = conditions: 35 seconds, 2 weeks at 50° F.
# Green Mold [5] = conditions: 35 seconds, 2 weeks at 50° F.; remark: listed apart in the source
# Green Mold [6] = test: Washing of oranges inoculated with Green Mold, decay; type: in vivo, Penicillium digitatum; conditions: oranges infected by green mold; four groups of 25; pressure washer, or soak tank for soda ash, sodium bicarbonate
# [7] = system: sour rot (Geotrichum Candidum); test: Effect of treatments on sour rot decay of lemons; type: in vivo
# P. digitatum [8] = conditions: lemons inoculated 48 hours before treatment; immersion; cited from earlier work
# P. digitatum [9] = conditions: fresh oranges and lemons; pressure washing; FIG. 6
# P. digitatum isolate M6R [10] = conditions: lemons, 1 or 3% wt/vol, 200 micrograms/ml free NaOCl, pH 8.3, controls 97%
# P. digitatum isolate M6R [11] = conditions: oranges, 1 or 3% wt/vol, 200 micrograms/ml free NaOCl, pH 8.3, controls 97%
# [12] = system: P. digitatum (M6R strain); test: SOPP, sodium bicarbonate & chlorine treatment, navel orange decay control; type: in vivo, Penicillium digitatum
# [13] = high pressure (about 300 psi) wash
# [14] = low pressure (about 95 psi) wash
# [15] = first set of data, four groups of 25
# [16] = second set of data, dipping, pH 11.4, alone
# [17] = second set of data, four groups of 25
# [18] = second set of data, dipping, pH 7.5, alone
# [19] = pressure washer (100 psi), navel oranges, replicates R1-R4, 2 weeks at 55° F., listed as Chlorine @ 200 ppm
compound,measurement,setting,value
"[Na+].[O-]Cl [Low Cl, sodium hypochlorite]",% Fruit Decay (Average),[1]; [13],98.5%
same,% Fruit Decay (Average),[1]; [14],99.5%
same,Total Decay,[1]; [13],201
same,Total Decay,[1]; [14],199
same,No decay,[1]; [13],3
same,No decay,[1]; [14],1
"CC/C=C\CC1C(=O)CCC1CC(=O)OC (stereo not shown) [Methyl jasmenate, high rate, Methyl jasmenate]",Mean Decay (%),P. digitatum [2]; [15],100.000%
same,Mean Decay (%),"P. digitatum [2]; second set of data, dipping",100.000%
"OCl [HOCl pH 8.4, HOCl]",Mean Decay (%),P. digitatum [2]; [15],99.000%
same,Mean Decay (%),"P. digitatum [2]; second set of data, dipping, listed as HOCl pH 8.4 alone",99.000%
"O=C([O-])O.[Na+] [BCB 0.5% alone, sodium bicarbonate]",Mean Decay (%),P. digitatum [3]; in vivo,27.000%
same,Decay (%) Oranges,Green Mold [4]; high pressure washing,76.3%
same,Decay (%) Oranges,Green Mold [4]; low pressure washing,82.7%
same,Decay (%) Oranges,"Green Mold [4]; no pressure washing, dip",56.9%
same,Decay (%) Lemons,Green Mold [5]; high pressure washing,55.3%
same,Decay (%) Lemons,Green Mold [5]; low pressure washing,66.2%
same,Decay (%) Lemons,"Green Mold [5]; no pressure washing, dip",45.1%
"OCl [HOCl pH 11.4, HOCl]",Mean Decay (%),P. digitatum [2]; [15],95.000%
same,Mean Decay (%),P. digitatum [2]; [16],95.000%
"O=C([O-])[O-].[Na+].[Na+] [0.3 M soda ash, pH 11.4, sodium carbonate]",Mean Decay (%),P. digitatum [2]; [15],10.000%
same,Mean Decay (%),P. digitatum [2]; [16],10.000%
"O=C([O-])O.[Na+] [BCB 1% alone, sodium bicarbonate]",Mean Decay (%),P. digitatum [3]; in vivo,13.000%
"O=C([O-])[O-].[Na+].[Na+] [0.15 M soda ash, pH 11.4, sodium carbonate]",Mean Decay (%),P. digitatum [2]; [15],31.000%
same,Mean Decay (%),P. digitatum [2]; [16],31.000%
"[O][Cl+][O-] [Oxine 75 ppm alone at 80° F., chlorine dioxide]",Mean Decay (%),Green Mold [6],14.000%
same,Mean Decay (%),"[7]; first set of data, four groups of 25, 80° F.",22.338%
same,Mean Decay (%),"[7]; second set of data, four groups of 25, listed as Oxine 75 ppm 80° F.",22.358%
"O=C([O-])O.[Na+] [BCB 0.25% alone, sodium bicarbonate]",Mean Decay (%),P. digitatum [3]; in vivo,46.000%
"[Na+].[O-]Cl [NaOCl 200 ppm pH 7.5 alone at 80° F., sodium hypochlorite]",Mean Decay (%),Green Mold [6],17.000%
same,Mean Decay (%),[7]; [15],18.112%
same,Mean Decay (%),[7]; [17],18.112%
O=C([O-])[O-].[Na+].[Na+] [sodium carbonate],reduction of incidence of infections from wounds,P. digitatum [8],more than 90%
"O=C([O-])O.[Na+] [0.15 M sodium bicarbonate, pH 7.5, sodium bicarbonate]",Mean Decay (%),P. digitatum [2]; [15],65.000%
same,Mean Decay (%),P. digitatum [2]; [18],65.000%
"O=C([O-])O.[Na+] [0.3 M sodium bicarbonate, pH 7.5, sodium bicarbonate]",Mean Decay (%),P. digitatum [2]; [15],41.000%
same,Mean Decay (%),P. digitatum [2]; [18],41.000%
"[O][Cl+][O-] [Oxine 200 ppm alone at 80° F., chlorine dioxide]",Mean Decay (%),Green Mold [6],18.000%
same,Mean Decay (%),"[7]; first set of data, four groups of 25, listed as Ozine 200 ppm, alone 80° F.",10.818%
same,Mean Decay (%),"[7]; second set of data, four groups of 25, listed as Oxine 200 ppm 80° F.",10.878%
"OCl [HOCl pH 7.5, HOCl]",Mean Decay (%),P. digitatum [2]; [15],99.000%
same,Mean Decay (%),"P. digitatum [2]; second set of data, dipping, listed as HOCl pH 7.5 alone",99.000%
"O=C([O-])O.[Na+] [BCB 3% alone, sodium bicarbonate]",Mean Decay (%),P. digitatum [3]; in vivo,7.000%
same,decay control,P. digitatum [9],~100%
"[Na+].[O-]Cl [High Cl, sodium hypochlorite]",% Fruit Decay (Average),[1]; [13],97.5%
same,% Fruit Decay (Average),[1]; [14],98%
same,Total Decay,[1]; [13],197
same,Total Decay,[1]; [14],196
same,No decay,[1]; [13],5
same,No decay,[1]; [14],4
"[O][Cl+][O-] [Oxine 3-6 ppm alone at 80° F., chlorine dioxide]",Mean Decay (%),Green Mold [6],14.000%
same,Mean Decay (%),"[7]; first set of data, four groups of 25, listed as Oxine 3-8 ppm, 80° F.",21.710%
same,Mean Decay (%),"[7]; second set of data, four groups of 25, listed as Oxine 5-8 ppm 80° F.",21.710%
O=C([O-])O.[Na+] [sodium bicarbonate],mean decay,P. digitatum isolate M6R [10]; HPSW at 2150 kPa (320 psi),17%
same,mean incidence of decay,P. digitatum isolate M6R [10]; tank treatment 35 seconds,22%
same,mean decay,P. digitatum isolate M6R [11]; HPSW at 2150 kPa (320 psi),20%
same,mean incidence of decay,P. digitatum isolate M6R [11]; tank treatment 35 seconds,19%
"O=C([O-])[O-].[Na+].[Na+] [Soda ash 3% w/v at 80° F., sodium carbonate]",Mean Decay (%),Green Mold [6],11.000%
same,Mean Decay (%),[7]; [15],10.638%
same,Mean Decay (%),[7]; [17],10.856%
same,Decay (%) Oranges,"Green Mold [4]; no pressure washing, dip",13.0%
same,Decay (%) Lemons,"Green Mold [5]; no pressure washing, dip",6.8%
"[Na+].[O-]Cl [HOCl 200 ppm alone, sodium hypochlorite]",Mean Decay (%),"P. digitatum [3]; immersion, oranges, mean of four samples of 25",88.000%
same,Mean Decay (%),"[12]; 100 psi wash, navel oranges (Table 10)",99.3% (a)
same,Decay Control (%),"[12]; 100 psi wash, navel oranges, relative to inoculated control",0.0%
same,"% Decay, Mean %","[12]; pressure washer (100 psi), navel oranges, mean of four replicates",99.3%
same,# Decay,[12]; [19],105 and 104 and 95 and 98
same,# Healthy,[12]; [19],0 and 1 (3×)
same,% Decay,[12]; [19],100.0% and 99.0% (3×)
"O=C([O-])O.[Na+] [0.3 M sodium bicarbonate, pH 8.4, sodium bicarbonate]",Mean Decay (%),P. digitatum [2]; [15],43.000%
same,Mean Decay (%),"P. digitatum [2]; second set of data, dipping, pH 8.4, alone",43.000%
